This assay has as its target full length NS3/4a (Hepatitis C virus genotype 1b (isolate BK) (HCV), UniProt P26663). The experiment in a line: NS3 Protease Assay (Example A), FRET-based. The class given is biochemical. The method in brief: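 Full-length NS3/4a, made in-house, with an NS4A/B-derived peptide substrate carrying QXL520 quencher and 5-FAMsp fluorophore. Buffer 50 mM Tris pH8, 20 mM DTT, 1% CHAPS, 10% glycerol, 5% DMSO. Fluorescence followed 30 min at room temperature; IC50 from initial rates of replicate curves.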

Where [1] appears, read: stated as IC50 less than 30 μM or at least 40% inhibition at a concentration of 100 μM, read-out: IC50 against the protease activity of the full length NS3/4a.
The mark [2] stands for this setting: HCV NS3 protease assay, full length NS3/4a, read-out: Assay A IC50 (μM) average.
The mark [3] stands for this setting: read-out: IC50 against the protease activity of the full length NS3/4a.

Read-outs that look alike come from different tables or passages of the source.

Sequence of full length NS3/4a (P26663 1027-1657): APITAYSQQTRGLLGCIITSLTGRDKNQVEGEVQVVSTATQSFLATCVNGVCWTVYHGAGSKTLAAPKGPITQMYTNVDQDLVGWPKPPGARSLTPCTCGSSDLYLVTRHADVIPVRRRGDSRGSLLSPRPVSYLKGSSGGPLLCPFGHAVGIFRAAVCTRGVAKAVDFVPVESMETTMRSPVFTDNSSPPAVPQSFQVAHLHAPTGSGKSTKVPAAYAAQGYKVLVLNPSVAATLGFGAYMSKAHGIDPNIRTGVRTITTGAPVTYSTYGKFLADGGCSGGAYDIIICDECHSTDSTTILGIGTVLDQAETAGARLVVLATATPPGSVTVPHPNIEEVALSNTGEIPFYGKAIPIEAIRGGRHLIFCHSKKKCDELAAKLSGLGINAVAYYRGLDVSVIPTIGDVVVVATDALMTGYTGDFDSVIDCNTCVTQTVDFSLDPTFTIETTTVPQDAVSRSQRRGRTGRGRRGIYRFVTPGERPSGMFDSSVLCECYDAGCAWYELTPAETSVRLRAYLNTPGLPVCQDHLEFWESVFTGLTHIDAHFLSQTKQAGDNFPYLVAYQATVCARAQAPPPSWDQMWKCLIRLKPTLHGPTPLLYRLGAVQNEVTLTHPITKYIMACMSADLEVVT

For the molecule `CC[C@@H](NC1CCOCC1)c1ccc(Cl)c(C(=O)c2cccnc2)c1F` [Example 283, N-[(1R)-1-{4-chloro-2-fluoro-3-[(pyridin-3-yl)carbonyl]phenyl}propyl]oxan-4-amine], under setting [1], the IC50 was below 30 µM.

Take “(3S)-3-{[(1R)-1-{3-[(6- aminopyridazin-3- yl)carbonyl]-4-chloro-2- fluorophenyl}propyl]amino} butanamide [Example 232]”: the IC50 by setting is: under setting [2], 0.99 µM; under setting [3], below 1 µM.

Consider `CC[C@@H](NC)c1ccc(Cl)c(C(=O)c2cccnc2)c1F` [Example 289, [(1R)-1-{4-chloro-2-fluoro-3-[(pyridin-3-yl)carbonyl]phenyl}propyl](methyl)amine], for which the IC50 is, setting by setting: under setting [2], 2.4 µM; under setting [3], 1 to 5 µM.

Take `[2H]C([2H])([2H])C([2H])([2H])[C@@H](N[C@H](C)CC(N)=O)c1ccc(Cl)c(C(=O)c2ccc(N)c(C)c2)c1F` [Example 221, (3R)-3-{[(1R)-1-{3-[(4-amino-3-methylphenyl)carbonyl]-4-chloro-2-fluorophenyl}(2,2,3,3,3-deutero)propyl]amino} butanamide]: the IC50 under setting [2] amounted to 0.36 µM.

On to `CC[C@@H](N)c1ccc(Cl)c(C(=O)c2cn[nH]c2)c1F` [Example 55, (1R)-1-{4-chloro-2-fluoro-3-[(1H-pyrazol-4-yl)carbonyl]phenyl}propan-1-amine], for which the IC50 is, setting by setting: under setting [2], 4.4 µM; under setting [3], 1 to 5 µM.

On to `CC[C@@H](N[C@H](C)C1(C(N)=O)CC1)c1ccc(Cl)c(C(=O)c2cccnc2)c1F` [Example 131, 1-[(1R)-1-{[(1R)-1-{4-chloro-2-fluoro-3-[(pyridin-3-yl)carbonyl]phenyl}-propyl]-amino}ethyl]-cyclopropane-1-carboxamide], for which the IC50 by setting is: under setting [2], 7.9 µM; under setting [1], below 30 µM.

In the case of `COc1ccc([C@H](N[C@@H](C)CC(N)=O)C2CC2)c(F)c1C(=O)c1ccc(F)cc1` [Example 210, (3S)-3-{[(R)-cyclopropyl({2-fluoro-3-[(4-fluorophenyl)carbonyl]-4-methoxyphenyl})methyl]amino} butanamide], the IC50 by setting is: under setting [2], 0.098 µM; under setting [3], below 1 µM.

Consider `CC[C@@H](NC(=O)C1=CCNC1)c1ccc(Cl)c(C(=O)c2cccnc2)c1F` [Example 291, N-[(1R)-1-{4-chloro-2-fluoro-3-[(pyridin-3-yl)carbonyl]phenyl}propyl]-2,5-dihydro-1H-pyrrole-3-carboxamide], for which the inhibition at 3 µM (@ 3 uM) came out at 51%. Further, under setting [3], the IC50 lay in the range of 1 to 5 µM.

On to `CC[C@@H](N)c1ccc(Cl)c(C(=O)c2ccc(O)cc2)c1F` (stereo in doubt) [Example 193, [3-(1-Amino-propyl)-6-chloro-2-fluoro-phenyl]-(4-hydroxy-phenyl)-methanone], for which the IC50 under setting [2] came out at 0.31 µM and the IC50 under setting [3] is below 1 µM.

On to `CC[C@@H](N[C@H](C)C(N)=O)c1ccc(Cl)c(C(=O)c2cccnc2)c1F` [Example 169, (2R)-2-{[(1R)-1-{4-chloro-2-fluoro-3-[(pyridin-3-yl)carbonyl]phenyI}-propyl]amino}propanamide], for which the “Assay A % inhibition average” value (@ 100 uM) is listed as 53% @ 100 uM. Also, under setting [1], the IC50 was below 30 µM.

Take `CC[C@H](NCCO)c1ccc(Cl)c(C(=O)c2ccc(N)nc2)c1F` [Example 173, 2-{[(1S)-1-{3-[(6-aminopyridin-3-yl)carbonyl]-4-chloro-2-fluorophenyl}propyl]-amino}ethan-1-ol]: the IC50 runs as follows: under setting [2], 0.13 µM; under setting [3], below 1 µM.

In the case of `CC[C@@H](NC1CC1)c1ccc(Cl)c(C(=O)c2cccnc2)c1F` [Example 296, N-[(1R)-1-{4-chloro-2-fluoro-3-[(pyridin-3-yl)carbonyl]phenyl}-propyl]cyclopropanamine], the IC50 was 13 µM under setting [2] and below 30 µM under setting [1].

As to `CC[C@@H](N[C@H](C)CC(N)=O)c1ccc(Cl)c(C(=O)c2cccc(CO)c2)c1F` [Example 189, (3R)-3-{[(1R)-1-(4-chloro-2-fluoro-3-{[3-(hydroxymethyl)-phenyl]-carbonyl}phenyl)-propyl]amino}butanamide], the IC50 under setting [2] was 0.54 µM.

As for `CC[C@@H](N)c1ccc(Cl)c(C(=O)c2ccc(N)nn2)c1F` [Example 197, 6-({3-[(1R)-1-Aminopropyl]-6-chloro-2-fluorophenyl}carbonyl)pyridazin-3-amine], testing at 10 µM (@ 10 uM) gave an inhibition of 45%. The IC50 under setting [1] was below 30 µM.

On to `CCC(NC1CCCC1C(N)=O)c1ccc(Cl)c(C(=O)c2ccc(N)nc2)c1F` (single isomer, unassigned) [Example 126, 2-{[1-{3-[(6-aminopyridin-3-yl)carbonyl]-4-chloro-2-fluorophenyl}propyl]amino} cyclopentane-1-carboxamide], for which the IC50 under setting [2] worked out at 0.12 µM and the IC50 under setting [3] is below 1 µM.

As to `CC[C@@H](N)c1ccc(Cl)c(C(=O)c2ccc3c(c2)OCCN3)c1F` [Example 65, (1R)-1-{4-chloro-3-[(3,4-dihydro-2H-1,4-benzoxazin-7-yl)carbonyl]-2-fluorophenyl}propan-1-amine], the IC50 under setting [2] was determined as 0.16 µM.

Turning to `Nc1cnc(C(=O)c2c(Cl)ccc([C@H](N)C3CC3)c2F)cn1` [Example 56, 5-({3-[(R)-amino(cyclopropyl)methyl]-6-chloro-2-fluorophenyl}carbonyl)pyrazin-2-amine], the IC50 reads like this: under setting [2], 0.6 µM; under setting [3], below 1 µM.

Take `CC[C@@H](N[C@H](C)CC(N)=O)c1ccc(Cl)c(C(=O)c2ccnc(N)c2)c1F` [Example 206, (3R)-3-{[(1R)-1-{3-[(2-aminopyridin-4-yl)carbonyl]-4-chloro-2-fluorophenyl}propyl]amino}butanamide]: the IC50 is 1.2 µM under setting [2] and 1 to 5 µM under setting [3].

Where the note is “@ 10 uM”, `CC[C@@H](N)c1ccc(Cl)c(C(=O)c2ccc(Cl)nn2)c1F` [Example 214, (1R)-1-{4-chloro-3-[(6-chloropyridazin-3-yl)carbonyl]-2-fluorophenyl}propan-1-amine] displayed an inhibition at 10 µM of 51%. Also, the IC50 under setting [1] was below 30 µM.

As to `CC[C@@H](N)c1ccc(OC)c(C(=O)c2cccc(F)c2)c1F` [Example 198, (1R)-1-{2-fluoro-3-[(3-fluorophenyl)carbonyl]-4-methoxyphenyl}propan-1-amine], the IC50 reads like this: under setting [2], 2.4 µM; under setting [3], 1 to 5 µM.

On to `CC[C@@H](N[C@H](C)CC(N)=O)c1ccc(Cl)c(C(=O)c2ccc[n+]([O-])c2)c1F` [Example 117, (R)-3-{(R)-1-[4-Chloro-2-fluoro-3-(1-oxy-pyridine-3-carbonyl)-phenyl]propylamino}-butyramide], for which the “Assay A % inhibition average” value (@ 10 uM) is listed as 16% @ 10 uM.

Regarding `CCC(NC1CCCC1C(N)=O)c1ccc(Cl)c(C(=O)c2ccc(N)nc2)c1F` (single isomer, unassigned) [Example 127, 2-{[1-{3-[(6-aminopyridin-3-yl)carbonyl]-4-chloro-2-fluorophenyl}propyl]amino} cyclopentane-1-carboxamide], the IC50 reads like this: under setting [2], 1.6 µM; under setting [3], 1 to 5 µM.

`C[C@H](CC(N)=O)N[C@@H](c1ccc(Cl)c(C(=O)c2ccc(C#N)cn2)c1F)C1CC1` [Example 245, (3R)-3-{[(R)-{4-chloro-3-[(5-cyanopyridin-2-yl)carbonyl]-2-fluorophenyl}(cyclopropyl)methyl]amino}butanamide]: the IC50 reads like this: under setting [2], 3.4 µM; under setting [3], 1 to 5 µM.

With `CC[C@@H](N[C@H](C)CC(N)=O)c1ccc(Cl)c(C(=O)c2ccccc2)c1F` [Example 83, (3R)-3-{[(1R)-1-(3-benzoyl-4-chloro-2-fluorophenyl)propyl]-amino}butanamide], under setting [2], the IC50 is 0.5 µM.

As for `CC[C@@H](N[C@H](C)CC(N)=O)c1ccc(Cl)c(C(=O)c2ccc(N)nc2)c1F` [Example 82, (3R)-3-{[(1R)-1-{3-[(6-aminopyridin-3-yl)carbonyl]-4-chloro-2-fluorophenyl}propyl]-amino}butanamide], the IC50 under setting [2] was 0.83 µM.

For the molecule `CC[C@H](N)c1ccc(Cl)c(C(=O)c2ccc(N)nc2)c1F` [Example 31, 5-({3-[(1S)-1-aminopropyl]-6-chloro-2-fluorophenyl}carbonyl)pyridin-2-amine], the IC50 reads like this: under setting [2], 0.18 µM; under setting [3], below 1 µM.

On to `CC[C@@H](N[C@H](C)CC(N)=O)c1ccc(Cl)c(C(=O)c2ccc(C#N)cc2)c1F` [Example 92, (3R)-3-{[(1R)-1-{4-chloro-3-[(4-cyanophenyl)carbonyl]-2-fluorophenyl}propyl]amino}-butanamide], for which, under setting [2], the IC50 came out at 0.34 µM.

In the case of `C=CC[C@@H](N)c1ccc(Cl)c(C(=O)c2ccc(N)nc2)c1F` [Example 67, 5-({3-[(1R)-1-aminobut-3-en-1-yl]-6-chloro-2-fluorophenyl}carbonyl)pyridin-2-amine], the IC50 under setting [2] worked out at 0.37 µM.

`CC[C@@H](N[C@@H](C)CC(N)=O)c1ccc(Cl)c(C(=O)c2ccc(C(N)=O)cc2)c1F` [Example 146, 4-({3-[(1R)-1-{[(2S)-1-Carbamoylpropan-2-yl]amino}propyl]-6-chloro-2-fluorophenyl}carbonyl)-benzamide] had an inhibition at 0.3 µM (@ 0.3 uM) of 56%.

Where the note is “@ 10 uM”, `CC[C@@H](N[C@H](C)CC(N)=O)c1ccc(Cl)c(C(=O)c2ccc(N)nn2)c1F` [Example 233, (3R)-3-{[(1R)-1-{3-[(6-aminopyridazin-3-yl)carbonyl]-4-chloro-2-fluorophenyl}propyl]amino}butanamide] gave an inhibition at 10 µM of 40%. Moreover, the IC50 under setting [1] is below 30 µM.

Turning to `CC[C@@H](N[C@@H](C)CC(N)=O)c1ccc(Cl)c(C(=O)c2ccc(N)c(C#N)c2)c1F` [Example 213, (3S)-3-{[(1R)-1-{3-[(4-amino-3-cyanophenyl)carbonyl]-4-chloro-2-fluorophenyl}propyl]amino} butanamide], the IC50 under setting [2] was 0.35 µM.

Values taken from US9145354B2, “Pharmaceutical compounds” (priority 2011, dated 2015).
